Test results: ChEMBL document CHEMBL1127803 (J Med Chem, 1994)
Where a SMILES comes first, the peptide text is derived from it. [ ]: non-standard residue; d: D form. The star is where a group is joined. Tyr(Nα,Nα-allyl2) = C=CCN(CC=C)[C@@H](Cc1ccc(O)cc1)C(=O)*; Aib = CC(C)(N)C(=O)O

How the values were obtained:
Mu-type opioid receptor [1] = target: Mu-type opioid receptor (Rattus norvegicus, UniProt P33535); assay: Evaluated for inhibition of [3H]DAMGO binding from mu receptor in rat brain membranes; type: cell membranes
Mu-type opioid receptor [2] = target: Mu-type opioid receptor (Cavia porcellus, UniProt P97266); assay: Tested for agonist activity against mu opioid receptor in guinea pig ileum; type: functional, tissue-based
[3] = target: T1, Delta-type opioid receptor (Mus musculus, UniProt P32300); assay: Tested for inhibition of binding of [3H]DADLE to mouse brain membranes depleted of mu binding sites by pretreatment with irreversible ligand BIT for delta opioid receptor; set-up: species or system Membrane
[4] = target: T1, Delta-type opioid receptor; assay: Tested for agonist activity against delta opioid receptor mouse vas deferens; type: functional, tissue-based

T1 sequence (P32300 whole entry): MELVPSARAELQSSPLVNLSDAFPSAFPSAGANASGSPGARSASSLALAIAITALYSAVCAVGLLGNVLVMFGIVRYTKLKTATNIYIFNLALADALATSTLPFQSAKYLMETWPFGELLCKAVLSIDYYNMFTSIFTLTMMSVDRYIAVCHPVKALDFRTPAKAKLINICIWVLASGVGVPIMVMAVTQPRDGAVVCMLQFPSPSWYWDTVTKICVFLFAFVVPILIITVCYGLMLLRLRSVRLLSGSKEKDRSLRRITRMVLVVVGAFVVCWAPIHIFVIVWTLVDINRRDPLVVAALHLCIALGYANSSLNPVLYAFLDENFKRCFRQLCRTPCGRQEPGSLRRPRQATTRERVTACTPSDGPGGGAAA
Chain of Mu-type opioid receptor (Rattus norvegicus, UniProt P33535) (P33535 whole entry): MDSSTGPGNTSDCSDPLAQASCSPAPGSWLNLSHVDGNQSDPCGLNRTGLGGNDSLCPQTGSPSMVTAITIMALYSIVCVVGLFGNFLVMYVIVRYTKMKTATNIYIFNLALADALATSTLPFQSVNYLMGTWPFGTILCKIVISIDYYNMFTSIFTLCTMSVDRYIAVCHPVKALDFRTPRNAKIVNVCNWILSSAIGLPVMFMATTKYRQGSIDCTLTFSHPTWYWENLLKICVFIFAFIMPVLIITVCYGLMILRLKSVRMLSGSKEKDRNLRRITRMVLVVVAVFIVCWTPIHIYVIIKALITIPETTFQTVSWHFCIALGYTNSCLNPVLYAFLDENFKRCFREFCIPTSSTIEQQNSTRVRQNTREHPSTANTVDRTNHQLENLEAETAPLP
Chain of Mu-type opioid receptor (Cavia porcellus, UniProt P97266) (P97266 whole entry): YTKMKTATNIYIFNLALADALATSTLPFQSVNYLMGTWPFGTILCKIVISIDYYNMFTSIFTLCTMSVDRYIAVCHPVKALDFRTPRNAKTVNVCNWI

SMILES	IC50 (Mu-type opioid receptor [1])	IC50 (Mu-type opioid receptor [2])	IC50 [3]	further results
C=CCN1C[C@H](C)N([C@@H](c2ccc(C(=O)N(CC)CC)cc2)c2cccc(OC)c2)C[C@H]1C	2470 nM	5460 nM		
C=CCN1C[C@@H](C)N([C@H](c2ccc(C(=O)N(CC)CC)cc2)c2cccc(O)c2)C[C@@H]1C			9.58 nM	
C=CCN1C[C@@H](C)N([C@@H](c2ccc(C(=O)N(CC)CC)cc2)c2cccc(O)c2)C[C@@H]1C			0.49 nM	
C=CCN1CC(C)N(C(c2ccc(C(=O)N(CC)CC)cc2)c2cccc(O)c2)CC1C (racemic)		143 nM	0.92 nM	IC50 [4]: 0.2 nM
C=CCN1C[C@@H](C)N(C(c2ccc(C(=O)N(CC)CC)cc2)c2cccc(OC)c2)C[C@@H]1C (single isomer, unassigned)	9140 nM	1520 nM		
C=CCN1CC(C)N([C@H](c2ccc(C(=O)N(CC)CC)cc2)c2cccc(OC)c2)CC1C (single isomer, unassigned) [SNC-80]	9370 nM			
C=CCN1C[C@H](C)N(C(c2ccc(C(=O)N(CC)CC)cc2)c2cccc(O)c2)C[C@H]1C (single isomer, unassigned; (+)-1)			0.31 nM	
C=CCN1C[C@H](C)N(C(c2ccc(C(=O)N(CC)CC)cc2)c2cccc(O)c2)C[C@H]1C (single isomer, unassigned; (+)-10)			5.96 nM	
C=CCN(CC=C)[C@@H](Cc1ccc(O)cc1)C(=O)NC(C)(C)C(=O)NC(C)(C)C(=O)N[C@@H](Cc1ccccc1)C(=O)N[C@@H](CC(C)C)C(=O)O.C=CCN1C[C@H](C)N([C@@H](c2ccc(C(=O)N(CC)CC)cc2)c2cccc(OC)c2)C[C@H]1C ({Tyr(Nα,Nα-allyl2)}-[Aib][Aib]FL-OH)				IC50 [4]: 3250 nM
CC(C)[C@H](NC(=O)[C@H](CCC(=O)O)NC(=O)[C@H](Cc1ccccc1)NC(=O)[C@@H](C)NC(=O)[C@@H](N)Cc1ccc(O)cc1)C(=O)N[C@H](C(=O)NCC(=O)O)C(C)C [DELTORPHIN]		15000 nM		
C=CCN1C[C@H](C)N([C@H](c2ccc(C(=O)N(CC)CC)cc2)c2cccc(OC)c2)C[C@H]1C [SNC-80]	5710 nM			
